Experimental findings from US20250248926A1, “AN INJECTABLE MICROPARTICLE SYSTEM AND METHOD OF PREPARING THEREOF” (AMRITA VISHWA VIDYAPEETHAM, priority 2022, published 2025) are described below.

Where two headings read alike, the source gives them in different places.

For data set [1] the following is noted: by 3rd hour, CT. As for the experimental part:
Contrast agent Iodine loaded microstructures are injected in left and right hemispheres of a goat brain phantom and imaged over 4 hours using MicroCT (FIG. 21 (A-E)).
Iodine loaded microstructures (in the form of injectable gels) are injected in left and right hemispheres of a goat brain phantom and imaged over 4 hours using CT (FIG. 21 (A-E)).

The subject of the next data set is C6 (rat glioma) cells. In words: In vitro cytotoxicity, MTT assay, C6 cells. The data set is classed as cell-based. As for the experimental part:
(§1) Cells of seeding density 4×10^4 cells/well were treated with concentrations from 1 μM-100 μM of BCNU or PL loaded microstructures 24 hours post seeding. MTT assay was performed 96 hours post treatment. […] With radiation, the cell viability of non-drug treated controls reduced by ˜60%.

For data set [2] the following is noted: rat brain. As for the experimental part:
200-250 g Wistar rats (female) were selected for the study. Respective microparticle gel was injected (10 μl/1 mg BCNU) injected at coordinates 2 mm lateral, 2 mm anterior and 2 mm depth using stereotactic equipment. Animals were euthanized 3, 7 and 15 days post injection, brains were excised and stored at −80° C. Each brain was sliced into 1 mm sections and each section was homogenized in 1 ml MilliQ water (pH 4) and precipitated using 10 ml Ethanol. The samples are centrifuged at 10000 rpm for 15 minutes for drug extraction (repeated 4 times). The solvents are evaporated using a vacuum centrifuge and then remnant pellets are analyzed for their drug content using HPLC.

The test system of data set [3] is T98G (human glioma) cells. The data set can be described thus: In vitro cytotoxicity, MTT assay, T98G cells. The following applies: 100 μM (highest concentration), MTT 96 hours post treatment. The data set is classed as cell-based. As for the experimental part: as §1
In general terms: Tetrazolium dyes change colour on reduction, which living cells bring about.

With `II` [Free iodine], the diffusion in data set [1] turned out to be 1.6 cm.

`O=NN(CCCl)C(=O)NCCCl` [free BCNU, 1,3-Bis(2-chloroethyl)-1-nitrosourea]: the viability (commonly the share of living cells, or the viability signal relative to a control) at 100 µM in the data set with C6 (rat glioma) cells (Rattus norvegicus, C6, 96 h, read-out: cells viable (cell viability)) was roughly 20%. Moreover, the drug in brain in data set [2] (day-3 post intracranial injection) is 15%; in data set [2] (day-15 post intracranial injection) it was 3.9%.

Take `COc1cc(/C=C/C(=O)N2CCC=CC2=O)cc(OC)c1OC` [free PL, Piperlongumine]: the “cells viable (cell viability)” value in the data set with C6 (rat glioma) cells (C6 cells, 100 μM, MTT 96 hours post treatment) is reported as roughly 3%. Besides, in data set [3], the “cells remaining (cell viability)” value is 16.6%.
